Measurements taken from PubChem BioAssay AID977621 (Broad Institute, 2014).
Records with an inconclusive call do not appear. Active and inactive are the calls of the source.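 How the source made its calls: active means Wild-type ribosome reporter drop at least double the humanized mutant ribosome reporter drop, growth loss under a set limit; inconclusive means no clear call, values can overlap the other calls; inactive means the rest.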

Assays:
[1] = system: E. coli H69 humanized mutant ribosome RFP strain growth, fluorescence, 24 h; test: wild-type E. coli growth inhibition versus H69 humanized strain – H69 mutant RFP, wild-type GFP, cherry-pick, dose response (AID 977621); details: test 2;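 further: wild-type GFP and H69 mutant RFP strains grown together 50/50 in each well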
[2] = system: E. coli wild-type GFP strain growth, fluorescence, 24 h; test: as above
[3] = E. coli mixed culture, 24 h, measured here: total growth OD600, test 2

Structure (SMILES) | AC50 [1] [µM] | AC50 [2] | AC50 [2, 3] [µM]
CN(c1ccccc1)c1ccc([N+](=O)[O-])c2nonc12 | 49.4 | > 100 µM (inactive) | 
Cc1sc(NC(=O)CN2CCOCC2)nc1-c1ccc2c(c1)CCN2S(=O)(=O)c1ccccc1 | 2.87 |  | > 100
COC(=O)c1c(NC(=O)c2ccccc2C(=O)O)sc2c1CCC2 | 45.4 | > 100 µM (inactive) | 
O=C(O)C1CCCCC1C(=O)Nc1ccc(OCc2ccccc2)cc1 (stereo unspecified) | > 100 | > 100 µM (inactive) | 
O=C(NC1=NCCS1)c1sc2ccccc2c1Cl | > 100 | > 100 µM (inactive) | 43.6
Cc1ccccc1-n1c([C@@H]2C[C@H]2c2ccccc2)n[nH]c1=S | 5.56 |  | 1.6
O=C(NCc1ccccc1Cl)[C@H]1CCCN1C(=O)[C@H]1CCCN1C(=O)c1cccc2ccccc12 | > 100 | > 100 µM (inactive) | 48
